Test results from US20240327882A1, “Methods and Compositions for Increasing Bio-products in Cyanobacteria using Low-Dose Antibiotics” (priority 2023, published 2024).
Where “and” joins values, the source holds several entries; their conditions need not be identical. Identical values can stand only once. Entries after “also recorded” stand apart in the source; their conditions may differ.

Columns and labels:
[1] = tested on: F. diplosiphon strain B481-WT; assay: lactate dehydrogenase (LDH) activity / membrane permeability, strain B481-WT; assay type: cell-based, Fremyella diplosiphon
Procedure: The assay quantitatively measures released extracellular LDH activity in culture media by enzymatic reaction.
(§1) F. diplosiphon strains, B481-WT obtained from the UTEX algae repository (Austin, TX, United States), and B481-SD (overexpressed strain with the sterol desaturase gene; accession MH329183) were used in this study. Cultures were grown in liquid BG-11/HEPES medium under wide-spectrum red light (650 nm) with continuous shaking at 170 rpm at 28° C. in an Innova 44R shaker (Eppendorf, Hamburg, Germany) for 6 days. Light fluorescence rate was adjusted to 30 μmol m^−2 s^−1 using the model LI-190SA quantum sensor (Li-Cor, United States). These conditions were kept constant during the study.
Three classes of antibiotics: β-lactams (ampicillin), aminoglycosides (kanamycin), and tetracycline, were tested in this study. Antibiotic stock solutions (25×-100×) were prepared according to the manufacturer's instructions and stored at −20° C. […] Each antibiotic concentration was mixed with 5 ml F. diplosiphon cells adjusted to OD750 nm and 200 μl of each dilution added. […]
The flasks were placed in an incubator at 37° C. in the dark for 24 h prior to lactate dehydrogenase (“LDH”) measurement. On day 6, 50 μl cultures were transferred to a 96 well clear polystyrene microplate (Corning, Inc., NY), and fluorescence Epi-RGB mode was used to macro-evaluation of antibiotic-treated both strains (Amersham Imager 680, GE Healthcare Bio-Sciences AB, Uppsala, Sweden). […] Absorbance was measured at 490 nm using a microplate reader (BioTek Synergy H1 Microplate Reader, Agilent, United States) after 2 h incubation in the dark at room temperature. The calculated average of the control included cells without antibiotics or nVZI treatment was accepted as healthy cells and results were determined by subtracting LDH activity of the control from treated cells. Microscopic observations of antibiotic-related membrane and cyanobacterial structure alterations were made using a Cytation 5 Cell Imaging Multi-Mode reader (BioTek® Instruments, Inc., Winooski, United States).

[2] = tested on: F. diplosiphon strain B481-SD; assay: phycocyanin and chlorophyll α autofluorescence, strain B481-SD; assay type: cell-based, Fremyella diplosiphon; conditions: for concentrations with significant increase in pigment (phycocyanin and chlorophyll α) autofluorescence / concentrations with significant decrease in pigment (phycocyanin and chlorophyll α) autofluorescence: vs untreated control
Procedure: as §1
(§2) Three classes of antibiotics: β-lactams (ampicillin), aminoglycosides (kanamycin), and tetracycline, were tested in this study. Antibiotic stock solutions (25×-100×) were prepared according to the manufacturer's instructions and stored at −20° C. […] Each antibiotic concentration was mixed with 5 ml F. diplosiphon cells adjusted to OD750 nm and 200 μl of each dilution added.
(§3) Cells grown in the absence of antibiotics or nZVIs served as control. In order to minimize the effects of light scattering, every other well was left blank. Plates were sealed with a Breathe-Easy sealing membrane (Sigma-Aldrich, MO, Lot #MKCP8263) to prevent evaporative water loss and decrease the risk of contamination.
(§4) Phycocyanin and chlorophyll α fluorescence in antibiotic-treated and control F. diplosiphon B481-WT and B481-SD were recorded every other day (48 hour intervals) using a microplate reader (BioTek Synergy H1 Microplate Reader, Agilent, USA). While chlorophyll α fluorescence was recorded at an excitation of 420 nm and emission of 680 nm, phycocyanin was measured at excitations of 590 nm, and emissions of 650 nm, see FIGS. 5-20. Maximum PSII quantum yield (Fv/Fo) of treated and controlled F. diplosiphon strains was likewise measured using MINI-PAM (Walz, Effeltrich, Germany) every 48 h for 6 days after incubating in dark for 15 min. The (Fv/Fo) was calculated using the equation

[3] = tested on: F. diplosiphon strain B481-WT; assay: phycocyanin and chlorophyll α autofluorescence, strain B481-WT; assay type: cell-based, Fremyella diplosiphon; conditions: for concentrations with significant decrease in pigment (phycocyanin and chlorophyll α) autofluorescence / concentrations with enhanced pigment accumulation: vs untreated control
Procedure: as §1, §2, §3, §4

[4] = tested on: F. diplosiphon strain B481-SD; assay: maximum PSII quantum yield (Fv/Fo), strain B481-SD; assay type: cell-based, Fremyella diplosiphon
Procedure: as §4

[5] = tested on: F. diplosiphon strain B481-WT; assay type: cell-based, Fremyella diplosiphon
Procedure: (§5) The flasks were placed in an incubator at 37° C. in the dark for 24 h prior to lactate dehydrogenase (“LDH”) measurement. On day 6, 50 μl cultures were transferred to a 96 well clear polystyrene microplate (Corning, Inc., NY), and fluorescence Epi-RGB mode was used to macro-evaluation of antibiotic-treated both strains (Amersham Imager 680, GE Healthcare Bio-Sciences AB, Uppsala, Sweden). Next, 50 μL of the reaction mixture (LDH Cytotoxicity Assay Kit, Thermo Fisher Scientific, United States) was added. After incubation for 30 min. at room temperature in the dark, 50 μL of stock solution was added and mixed gently (Wejnerowski et al., 2018). Absorbance was measured at 490 nm using a microplate reader (BioTek Synergy H1 Microplate Reader, Agilent, United States) after 2 h incubation in the dark at room temperature. The calculated average of the control included cells without antibiotics or nVZI treatment was accepted as healthy cells and results were determined by subtracting LDH activity of the control from treated cells. Microscopic observations of antibiotic-related membrane and cyanobacterial structure alterations were made using a Cytation 5 Cell Imaging Multi-Mode reader (BioTek® Instruments, Inc., Winooski, United States).

[6] = tested on: F. diplosiphon B481-SD cultures; assay: total lipid content by gravimetry; assay type: cell-based, Fremyella diplosiphon; conditions: 0.8 mg/L; not statistically different (p>0.05)
Procedure: (§6) Total lipids were extracted and GC×GC/TOF-MS analysis of transesterified lipids in F. diplosiphon treated with optimal ampicillin were performed. B481-SD cultures were grown under optimal conditions and harvested on day 15. Total lipids were extracted using the chloroform: methanol method described by Folch et al. (1957). Briefly, cultures were pelleted and lyophilized, and 15 mL methanol/chloroform (2:1, v/v) solvent was added to 100 mg dry weight of cells. The mixture was homogenized, incubated on ice, and centrifuged at 3000 rpm for 10 min to collect the organic phase. The biomass residue was re-extracted thrice with 4 mL of methanol and 2 mL of chloroform. The lower organic phase was dried in a rotary evaporator (Heidolph, IL, USA), and the total lipid content was estimated by gravimetry.

[7] = tested on: F. diplosiphon B481-SD cultures; assay: GC×GC/TOF-MS analysis of transesterified lipids (FAMEs); assay type: cell-based, Fremyella diplosiphon; conditions: 0.8 mg/L
Procedure: as §6
Simultaneous extraction and transesterification of F. diplosiphon lipids were performed according to the method described by Wahlen et al. (2011). […] The reaction was quenched with 4 ml chloroform, washed in distilled water, and centrifuged at 2000 rpm for phase separation. The chloroform phase containing FAMEs and lipids was transferred to a new flask, and the remaining biomass was washed twice with 2 mL chloroform and mixed. The extracted FAMEs were subjected to high-resolution two-dimensional gas chromatography-time of flight mass spectrometry (GC×GC/TOF-MS) as described by Tabatabai et al. (2018).

[8] = tested on: F. diplosiphon strain B481-WT; assay: maximum PSII quantum yield (Fv/Fo), strain B481-WT; assay type: cell-based, Fremyella diplosiphon
Procedure: as §4

Microcystis aeruginosa = conditions: cited from earlier work
[9] = tested on: F. diplosiphon strain B481-SD; assay: lactate dehydrogenase (LDH) activity / membrane permeability, strain B481-SD; assay type: cell-based, Fremyella diplosiphon
[10] = tested on: F. diplosiphon strain B481-SD; assay type: cell-based, Fremyella diplosiphon
Procedure: as §5

F. diplosiphon = conditions: day 6; strain not stated

Structure (SMILES) | concentration of maximum LDH activity [1] [mg/L] | concentrations with significant increase in pigment (phycocyanin and chlorophyll α) autofluorescence [2] | concentrations with significant decrease in pigment (phycocyanin and chlorophyll α) autofluorescence [3] [mg/L] | concentration above which filament fragmentation and alteration of cell shape were observed [5] | concentrations with significant decrease in pigment (phycocyanin and chlorophyll α) autofluorescence [2] [mg/L] | concentration of maximum LDH activity [9] [mg/L] | concentrations with enhanced pigment accumulation [3] [mg/L] | concentration of maximal LDH activity (membrane permeability) (F. diplosiphon) [mg/L] | also measured
CC1(C)S[C@@H]2[C@H](NC(=O)[C@H](N)c3ccccc3)C(=O)N2[C@H]1C(=O)O [ampicillin] | 0.4 | 0.2 to 25.6 mg/L and 0.2 to 51.2 mg/L | 3.2 to 102.5 | higher than 25.6 mg/L | – | – | – | – | concentrations with significant increase in Fv/Fo ([4]; day 4, vs control): 0.2 to 3.2 mg/L; total lipid content compared to the control [6]: slight increase; monounsaturated fatty acids compared to the control [7]: Enhanced amounts; polyunsaturated fatty acids compared to the control [7]: Enhanced amounts; saturated fatty acids (SFAs) compared to the control [7]: augmentation; also recorded: Enhanced amounts; methyl ester of hexadecanoic acid (C16: 0) level vs untreated control ([7]; p<0.05): significantly higher; methyl octadecadienoate (C18: 2) level vs untreated control ([7]; p<0.05): significantly higher; methyloctadecenoate (C18: 1) level vs untreated control ([7]; p<0.05): significantly higher; ç-Linolenic acid (C18: 3) level vs untreated control ([7]; p<0.05): significantly higher
CO/N=C(\C(=O)N[C@@H]1C(=O)N2C(C(=O)O)=C(COC(C)=O)CS[C@H]12)c1csc(N)n1 [cefotaxime] | – | – | – | – | 0.8 to 102.5 | – | – | – | concentration above which there is no recovery of Fv/Fo [4]: higher than 1.6 mg/L; concentration above which there is no recovery of Fv/Fo [8]: > 0.05 mg/L
CC[C@H]1OC(=O)[C@H](C)[C@@H](O[C@H]2C[C@@](C)(OC)[C@@H](O)[C@H](C)O2)[C@H](C)[C@@H](O[C@@H]2O[C@H](C)C[C@H](N(C)C)[C@H]2O)[C@](C)(O)C[C@@H](C)C(=O)[C@H](C)[C@@H](O)[C@]1(C)O [erythromycin] | – | – | – | – | – | – | – | – | low dosages reported to trigger photosynthetic activity (Microcystis aeruginosa): < 20 mg/L
NC[C@H]1O[C@H](O[C@H]2[C@H](O)[C@@H](O[C@H]3O[C@H](CO)[C@@H](O)[C@H](N)[C@H]3O)[C@H](N)C[C@@H]2N)[C@H](O)[C@@H](O)[C@@H]1O [kanamycin] | 0.4 | 0.2 to 3.2 mg/L | 6.4 to 102.5 | > 51.2 µg/mL | 6.4 to 102.5 | 0.8 | 0.2 to 3.2 | 0.8 | concentrations with decrease in Fv/Fo ratio ([8]; exposure for 6 days): 1.6 to 102.5 mg/L; concentrations with significant increase in Fv/Fo ([8]; vs control group): 0.2 to 1.6 mg/L; concentration above which filament fragmentation and alteration of cell shape were observed [10]: > 51.2 µg/mL
CN(C)[C@@H]1C(O)=C(C(N)=O)C(=O)[C@@]2(O)C(O)=C3C(=O)c4c(O)cccc4[C@@](C)(O)[C@H]3C[C@@H]12 [tetracycline] | 0.4 | 0.8 to 12.8 mg/L | 25.6 to 410 | – | 102.5 to 410 | 0.8 | 0.8 to 12.8 | 0.8 | concentrations with significant increase in pigment autofluorescence ([2]; day 6): 0.8 to 12.8 mg/L; concentrations with significant increase in pigment autofluorescence ([3]; day 6): 0.8 to 12.8 mg/L; concentrations with decrease in Fv/Fo ratio ([4]; exposure for 6 days): higher than 102.5 mg/L
